From article PMC5634784, “Clearance of beta-amyloid is facilitated by apolipoprotein E and circulating high-density lipoproteins in bioengineered human vessels” (eLife, 2017)
Each block holds one compound with its values, some of them ahead of it.

Key:
Format in all cases: cell-based, human
[1] = test system: bioengineered tripartite vessels; assay: Aβ transport across tripartite bioengineered cerebral vessels (ELISA); conditions: for transport of fibrils compared to monomers: tripartite vessels, pre-aggregated (37°C, 48 hr) or monomeric Aβ 1 μM anteluminal
Protocol: Bioengineered constructs were fabricated using a dynamic, semi-pulsatile flow bioreactor system. Tubular biodegradable scaffolds (length 1.5 cm and inner diameter 2 mm) were produced as described ([Robert et al., 2013a]; [Robert et al., 2017]) with minor modifications. Briefly, non-woven polyglycolic acid (PGA, Biomedical Structure, Warwick, RI) meshes (thickness: 1 mm and density: 70 mg/cc) were dip-coated with polycaprolactone (PCL) and polylactate (PLA) by dipping PGA mesh in a solution of 1.75% (w/w) PCL/PLA/tetrahydrofuran (THF) solution (Sigma-Aldrich, St. Louis, MO), shaped into tubes using heat, and externally coated with a 10% PCL/THF (w/w) solution. Scaffolds were sterilized by immersion in 70% ethanol for 30 min followed by three PBS washes and then immersion in advanced DMEM supplemented with 10% FBS for at least 12 hr. UCMFB were seeded at density of 2−3 × 10^6 cells/cm^2 on the inner surface of the scaffold using fibrin (fibrinogen 10 mg clottable protein/ml PBS and thrombin 100–10 mU/ml PBS) as a cell carrier that was added directly to the scaffold, then incubated under static conditions for a minimum of 3 days before exposure to dynamic flow. The flow of nutrient medium (Advanced DMEM supplemented with 10% FBS, 1% L-glutamine and 0.05% Pen/Strep) was directed through the lumen of the bioreactor circulation loop to mimic blood flow for a minimum of one week. Vascular intermediates were then seeded with HUVEC (1 × 10^6 cells/cm^2) and cultivated first in static conditions for a minimum of 5 days in EGM−2 supplemented as above. For bipartite vessels, after the static phase, vascular grafts were placed back in the bioreactor for 14 additional days with increasing medium flow to a final rate of 10 ml/min by the 10th day). For tripartite vessels, after the static phase after HUVEC addition, primary astrocytes were seeded (1 × 10^6 cells/cm^2) using fibrin as a cell carrier as above on the antelumen side of the tissue. After 5 min at RT, grafts were placed under flow conditions with EGM-2 supplemented as above in the circulation chamber and complete astrocyte medium in the tissue chamber for 14 additional days with increasing medium flow to 10 ml/min by the 10th day.
The HFIP was removed by evaporation overnight and stocks were stored at −20°C. On the day of the assay, soluble monomers were prepared by reconstituting the peptide film in DMSO to 5 mM, diluted further to 100 µM in RPMI without FBS. 100 μl of Aβ solution was injected in the tissue chamber containing 900 μl of DMEM (Gibco) without FBS to the desired concentration using a syringe under flow conditions. […] For luminal recovery, 100 μl circulating medium was collected at the indicated time.
All experiments were conducted under an approved clinical protocol (UBC Clinical Ethics Research Board H14-03357). Upon receipt of written informed consent, 100 ml of fasted blood was collected from normolipidemic healthy donors into vacutainer tubes containing EDTA. Plasma HDL (1.063–1.21 g/ml) was isolated by sequential potassium bromide gradient ultracentrifugation as described ([Robert et al., 2013b]). […] Total protein concentration was assessed using the BCA assay (Thermofisher Scientific). Recombinant apoE2 and apoE4 were commercially purchased and solubilized following the manufacture’s instructions (ABCAM, apoE2 ab55210, apoE3 ab123764 and apoE4 ab50243). […] ApoE concentrations were measured using ELISA as previously described ([Fan et al., 2016]). […]

[2] = test system: NO synthase; assay: NO measurement: conversion of L-3H-arginine to L-3H-citruline in tripartite vessels
Protocol: NO synthesis was measured as described ([Robert et al., 2013a]) using a commercial NOS activity assay kit (Caymenchemical, Ann Arbor, MI). Briefly, a 2–3 mm ring of vascular tissue was mechanically ground in 150 μl of ice cold homogenized buffer (25 mM Tris-Cl, pH7.4, 1 mM EDTA and 1 mM EGTA) and centrifuged 15 min at 4°C at 10,000 g. The supernatant was aliquoted and incubated in reaction buffer containing 25 mM Tris-Cl, pH7.4, 0.25 mM EDTA, 0.6 mM CaCl2, 1 mM NADP, 200 nM calmodulin, 3 µM tetrahydrobiopterin, 1 µM flavin adenine dinucleotide, 1 µM flavin adenine monoucleotide and 0.2 µCi L-^3H-arginine; PerkinElmer, Waltham, MA) in the presence of 10 nM acetylcholine (Ach), 0.2 mg/ml HDL or 1 mM L-NG-nitroarginine methyl ester (L-NAME). After 60 min at 37°C, the reaction was stopped by adding 400 μl of stop buffer ([…] HEPES, 5 mM EDTA, pH 5.5). The solution was loaded onto an ion exchange column equilibrated with stop buffer to separate L-^3H-citruline from L-^3H-arginine. Scintillation mix (Ultimate Gold, PerkinElmer) was added to the supernatant and counted using LS6500 β-counter (Beckman Coulter, Brea, CA). The percent citrulline formed was calculated as follows: % conversion = (cpm reaction-cpm background)/cpm total *100.

[3] = test system: bioengineered bipartite vessels; assay: Aβ transport from anteluminal tissue chamber to luminal circulation across bipartite vessels (ELISA); conditions: 1 μM monomers anteluminal, luminal medium sampled over 4 hr
Protocol: Bioengineered constructs were fabricated using a dynamic, semi-pulsatile flow bioreactor system. Tubular biodegradable scaffolds (length 1.5 cm and inner diameter 2 mm) were produced as described ([Robert et al., 2013a]; [Robert et al., 2017]) with minor modifications. Briefly, non-woven polyglycolic acid (PGA, Biomedical Structure, Warwick, RI) meshes (thickness: 1 mm and density: 70 mg/cc) were dip-coated with polycaprolactone (PCL) and polylactate (PLA) by dipping PGA mesh in a solution of 1.75% (w/w) PCL/PLA/tetrahydrofuran (THF) solution (Sigma-Aldrich, St. Louis, MO), shaped into tubes using heat, and externally coated with a 10% PCL/THF (w/w) solution. Scaffolds were sterilized by immersion in 70% ethanol for 30 min followed by three PBS washes and then immersion in advanced DMEM supplemented with 10% FBS for at least 12 hr. UCMFB were seeded at density of 2−3 × 10^6 cells/cm^2 on the inner surface of the scaffold using fibrin (fibrinogen 10 mg clottable protein/ml PBS and thrombin 100–10 mU/ml PBS) as a cell carrier that was added directly to the scaffold, then incubated under static conditions for a minimum of 3 days before exposure to dynamic flow. The flow of nutrient medium (Advanced DMEM supplemented with 10% FBS, 1% L-glutamine and 0.05% Pen/Strep) was directed through the lumen of the bioreactor circulation loop to mimic blood flow for a minimum of one week. […]

[4] = test system: bioengineered bipartite vessels; assay: Aβ fibrillization in bioengineered vessels (Thioflavin-S staining, Thioflavin-T quantification)
[5] = test system: bioengineered tripartite vessels; assay: Aβ accumulation in tripartite bioengineered cerebral vessels (ELISA); conditions: GW3965 0.8 μM 72 hr, HDL 200 μg/ml luminal
Protocol: Bioengineered constructs were fabricated using a dynamic, semi-pulsatile flow bioreactor system. Tubular biodegradable scaffolds (length 1.5 cm and inner diameter 2 mm) were produced as described ([Robert et al., 2013a]; [Robert et al., 2017]) with minor modifications. Briefly, non-woven polyglycolic acid (PGA, Biomedical Structure, Warwick, RI) meshes (thickness: 1 mm and density: 70 mg/cc) were dip-coated with polycaprolactone (PCL) and polylactate (PLA) by dipping PGA mesh in a solution of 1.75% (w/w) PCL/PLA/tetrahydrofuran (THF) solution (Sigma-Aldrich, St. Louis, MO), shaped into tubes using heat, and externally coated with a 10% PCL/THF (w/w) solution. Scaffolds were sterilized by immersion in 70% ethanol for 30 min followed by three PBS washes and then immersion in advanced DMEM supplemented with 10% FBS for at least 12 hr. […]
All experiments were conducted under an approved clinical protocol (UBC Clinical Ethics Research Board H14-03357). […] Total protein concentration was assessed using the BCA assay (Thermofisher Scientific). […] ApoE concentrations were measured using ELISA as previously described ([Fan et al., 2016]). […]

[6] = test system: apoE secretion by astrocytes; assay: Native apoE secretion by astrocytes in tripartite vessels (ELISA); conditions: astrocytes APOE3/E3, GW3965 1 μM circulated through lumen 72 hr
Protocol: All experiments were conducted under an approved clinical protocol (UBC Clinical Ethics Research Board H14-03357). Upon receipt of written informed consent, 100 ml of fasted blood was collected from normolipidemic healthy donors into vacutainer tubes containing EDTA. Plasma HDL (1.063-1.21 g/ml) was isolated by sequential potassium bromide gradient ultracentrifugation as described ([Robert et al., 2013b]). The purity of the HDL preparations was verified by sodium dodecyl sulfate-polyacrylamide gel electrophoresis (SDS-PAGE) followed by Coomassie blue staining to ensure no LDL or albumin contamination (not shown). Total protein concentration was assessed using the BCA assay (Thermofisher Scientific). Recombinant apoE2 and apoE4 were commercially purchased and solubilized following the manufacture's instructions (ABCAM, apoE2 ab55210, apoE3 ab123764 and apoE4 ab50243). […] ApoE concentrations were measured using ELISA as previously described ([Fan et al., 2016]). Briefly, ELISA plates were coated overnight with anti-human apoE mAB […] antibody (MabTech, Cincinnati, OH, RRID: AB_1925746) at 1.55 μg/mL in PBS at 4°C, washed two times with PBST (0.05% Tween 20 in PBS), and blocked with 0.1% Blocker A (MesoScale Discovery, Rockville, MA) in PBST. […] Fluorescence was read after 15 min at RT on an EnSpire 2300 Multilabel Plate Reader (325Ex/420Em).

[7] = test system: endothelial barrier of bioengineered vessels; assay: Endothelium integrity: Evans blue extravasation; conditions: 0.5% in circulation loop 10 min, PBS wash 20 min
Protocol: Evans blue (Sigma-Aldrich) was injected at a final concentration of 0.5% in the circulation loop of the bioreactor for 10 min followed by continuous PBS washing for 20 min. Vessels were cut open longitudinally and en face preparations were analysed macroscopically with photo documentation. Restriction of paracellular transport was determined by measuring FITC dextran extravasation to the tissue chamber as described ([Gaillard et al., 2001]). […] After 1 hr tissue media was collected, fluorescent was read at RT on an EnSpire 2300 Multilabel Plate Reader (492Ex/518Em) and the permeability coefficient (Papp) was calculated using the following equation: Papp=(dQ/dt)*(1/A*C0*60) where dQ/dt is the amount of FITC-dextran transported per minute (ng/min), A is the surface area of the tissue (cm [[Attems and Jellinger, 2014]]), C0 is the initial concentration of FITC-Dextran (ng/ml) and 60 is the conversion from minutes to seconds.

Compound: Aβ40 fibrils: Aβ40 incubated at 37°C for 48 hr after reconstitution in RPMI
transport of fibrils compared to monomers ([1]; over 4 hr): significantly slower transport

Compound: CC(=O)OCC[N+](C)(C)C [acetylcholine]
NO production: conversion of L-3H-arginine to L-3H-citruline ([2]; 10 nM acetylcholine or 200 μg/ml HDL, 60 min at 37°C): significant increase

Compound: Aβ42: Recombinant Aβ42 peptide (California Peptide Research), soluble monomers
Aβ transport into circulating medium, bioengineered vessels versus scaffold-only controls [3]: transported at a slower rate
beta-sheet formation in tissue lysates (Thioflavin-T) ([4]; 1 μM monomers anteluminal, RIPA lysate, 20 μM Thioflavin-T, ex 440 nm / em 490 nm): increasing signal over time
Aβ fibrillization in the bioengineered vessels (Thioflavin-S) ([4]; monomers 0, 0.1, 1.0 and 10 μM anteluminal, 48 hr, Thioflavin-S staining): dose-dependent fibrillization
Aβ recovery into circulation medium, tripartite compared to bipartite vessels ([1]; 1 μM monomers anteluminal, over 4 hr): increased

Compound: O=C(O)Cc1cccc(OCCCN(Cc2cccc(C(F)(F)F)c2Cl)CC(c2ccccc2)c2ccccc2)c1 [GW3965]
effect on accumulation of Aβ40 within tripartite tissues after 24 hr ([5]; Aβ40 1 μM anteluminal): neither GW3965, HDL, nor both GW3965 and HDL affected accumulation
effect on accumulation of Aβ42 within tripartite tissues after 24 hr ([5]; Aβ42 1 μM anteluminal): neither GW3965, HDL, nor both GW3965 and HDL affected accumulation
secretion of native apoE into medium [6]: significantly stimulated the secretion of native apoE
effect on Aβ40 transport through tripartite vessels over 4 hr ([1]; Aβ40 1 μM anteluminal, GW3965 0.8 μM 72 hr, HDL 200 μg/ml luminal): neither GW3965 alone nor HDL alone modified the rate
effect on Aβ42 transport through tripartite vessels over 4 hr ([1]; Aβ42 1 μM anteluminal, GW3965 0.8 μM 72 hr, HDL 200 μg/ml luminal): neither GW3965 alone nor HDL alone modified the rate

Compound: Aβ42 fibrils: Aβ42 incubated at 37°C for 48 hr after reconstitution in RPMI
transport of fibrils compared to monomers ([1]; over 4 hr): significantly slower transport

Compound: COC(=O)[C@@H](N)CCCNC(N)=N[N+](=O)[O-] [L-NAME, L-NG-nitroarginine methyl ester]
NO production in the presence of NO synthase inhibitor ([2]; 1 mM L-NAME with Ach or HDL stimulation, 60 min): the conversion was blocked

Evans blue penetration into vessels with endothelium ([7]; vessels seeded with EC): excluded
Compound: Cc1cc(-c2ccc(/N=N/c3ccc4c(S(=O)(=O)O)cc(S(=O)(=O)O)c(N)c4c3O)c(C)c2)ccc1/N=N/c1ccc2c(S(=O)(=O)O)cc(S(=O)(=O)O)c(N)c2c1O [Evans blue]
Evans blue penetration into tissue without EC ([7]; tissue prepared without EC): penetrated into tissue prepared without EC
